Reference: US20100086931A1, “METHOD FOR ASSAYING ACTION OF ANTITUMOR AGENT USING DECREASE IN GENE EXPRESSION LEVEL AS INDEX” (Eisai R&D Management Co., Ltd., priority 2007, published 2010)

Tested on: human colon carcinoma cell strain WiDr
Test: Microarray analysis (Human Genome U133 plus 2.0 array) of mRNA expression in WiDr cells treated with compound A
Type: cell-based
Conditions: 14 nM, 6 h, ratio to control
Protocol: Microarray analysis (Human Genome U133 plus 2.0 array: Affymetrix) was carried out using RNA purified from human colon carcinoma cell strain WiDr treated with 2.8 nM and 14 nM of (8E,12E,14E)-7-((4-Cycloheptylpiperazin-1-yl)carbonyl)oxy-3,6,16,21-tetrahydroxy-6,10,12,16,20-pentamethyl-18,19-epoxytricosa-8,12,14-trien-11-olide (hereinafter also referred to as “compound A”) for six hours.
WiDr cells were first suspended in RPMI1640 medium (containing 10% FBS, penicillin, and streptomycin) and seeded in a 10 cm dish (2×10^6 cells/dish). After an overnight culture in an incubator with 5% carbon dioxide gas at 37° C., the medium was changed with medium containing 2.8 nM and 14 nM of compound A or containing vehicle alone. After cultured additional six hours, TRI reagent (SIGMA) was added to cells, and the cells were harvested. RNA was purified in accordance with the protocol of TRI reagent, followed by further purification with RNeasy (QIAGEN). Absorbance at 260 nm was measured to quantify an amount of RNA.
Subsequently, single stranded cDNA synthesis, double stranded cDNA synthesis, biotin-labeled cRNA synthesis, and cRNA fragmentation in order were carried out from 5-10 μg (WiDr 10 μg, PBMC 5 μg) of total RNA from the control cells and the treated cells, by using One-Cycle Target Labeling and Control Reagents (Affymetrix). cRNA probe was used for hybridization with Human Genome U133 Plus 2.0 Array (Affymetrix). The array was then washed and stained, and luminescence intensity was measured by a scanner.
The RMA method was applied to 33 of .cel files obtained in the microarray experiment and log signal intensity at a gene level normalized with log signal intensity at a probe level was obtained. By subtracting the mean between control 1 and control 3 from the mean between log signal intensity 1 and log signal intensity 3 for each case, the log signal intensity was converted into a log signal ratio to the control. A t-test was conducted between each log signal intensity and control, and candidate genes were narrowed down in the basis of a p-value, a log signal ratio, and a signal value. Specifically, genes showing that the P value was 5% or less; the expression level in the untreated (control) is 100 or more by signal value; and the expression level when treated with both 2.8 nM and 14 nM of compound A is, compared to the control, 25% or less, were picked out. The software used is R2.2.1 (http://www.r-project.org/), affy package 1.8.1 (http://www.bioconductor.org).
Genes showing that, by the treatment with compound A, the P value was 5% or less; the expression level in the untreated (control) is 100 or more by signal value; and the expression level when treated with both 2.8 nM and 14 nM of compound A is, compared to the control, 25% or less, and results thereof were shown in Table 1. Probe ID used in Table 1 represents Human Genome U133 Plus 2.0 Array Probeset ID. In Table 1, for each gene evaluated, gene name (Gene Name), abbreviated name (Gene Symbol), accession number (Accession), alias name (Synonym), Probe set number in Human Genome U133 Plus 2.0 Array (Human Genome U133 Plus 2.0 Array Probeset ID), the expression level upon the six-hour treatment with 2.8 nM of E7107 (2.8 nM (6 h)), and the expression level upon the six-hour treatment with 14 nM of E7107 (14 nM (6 h)) were respectively shown.

CCC(O)C(C)C1OC1CC(C)(O)/C=C/C=C(\C)C1OC(=O)CC(O)CCC(C)(O)C(OC(=O)N2CCN(C3CCCCCC3)CC2)/C=C/C1C (stereo not drawn) [E7107, (8E,12E,14E)-7-((4-Cycloheptylpiperazin-1-yl)carbonyl)oxy-3,6,16,21-tetrahydroxy-6,10,12,16,20-pentamethyl-18,19-epoxytricosa-8,12,14-trien-11-olide]
0.24: MYOHD1 mRNA expression level (225947_at) | SMUG1 mRNA expression level (218685_s_at) | SYTL2 mRNA expression level (232914_s_at)
0.07: DAPK1 mRNA expression level (203139_at) | EVI1 mRNA expression level (226420_at) | LOC51315 mRNA expression level (218303_x_at) | PPM1B mRNA expression level (209296_at) | RIF1 mRNA expression level (226821_at) | TNS3 mRNA expression level (217853_at)
0.11: FCHO2 mRNA expression level (228220_at) | KLHL12 mRNA expression level (225068_at) | LIPG mRNA expression level (219181_at) | MASTL mRNA expression level (228468_at) | RBMS1 mRNA expression level (209868_s_at) | TSEN2 mRNA expression level (219581_at) | TUBGCP3 mRNA expression level (203690_at)
0.12: ARMC8 mRNA expression level (203486_s_at) | CLIP1 mRNA expression level (201975_at) | Full-length cDNA clone CS0DL007YI24 of B cells (Ramos cell line) mRNA expression level (226648_at) | KIF2C mRNA expression level (211519_s_at) | NUPL1 mRNA expression level (223984_s_at) | ORC5L mRNA expression level (204957_at) | RBBP6 mRNA expression level (212783_at) | REPS1 mRNA expression level (224366_s_at) | Transcribed locus, strongly similar to NP_002194.1 integrin alpha 2 precursor mRNA expression level (227314_at) | Transcribed locus, strongly similar to NP_689873.1 mRNA expression level (228638_at) | ZNF518 mRNA expression level (204291_at)
0.13: CARD10 mRNA expression level (210026_s_at) | CDC7 mRNA expression level (204510_at) | NR2C1 mRNA expression level (204791_at) | RBM17 mRNA expression level (224780_at) | Transcribed locus mRNA expression level (230098_at)
0.14: C1orf79 mRNA expression level (223774_at) | CASC5 mRNA expression level (228323_at) | IXL mRNA expression level (225708_at) | MND1 mRNA expression level (223700_at) | PPWD1 mRNA expression level (213483_at) | SMEK2 mRNA expression level (226230_at) | STAMBPL1 mRNA expression level (227606_s_at) | STXBP3 mRNA expression level (203310_at)
0.04: C7orf23 mRNA expression level (204215_at) | RFC4 mRNA expression level (204023_at) | ZC3HAV1L mRNA expression level (228280_at)
0.10: ATP2B1 mRNA expression level (212930_at) | FRY mRNA expression level (204072_s_at) | MLL2 mRNA expression level (227527_at) | PHF20L1 mRNA expression level (226942_at) | POLR3E mRNA expression level (222490_at) | RAD54B mRNA expression level (219494_at) | Transcribed locus, moderately similar to XP_518244.1 mRNA expression level (235046_at)
0.21: C17orf80 mRNA expression level (223351_at) | FANCL mRNA expression level (218397_at) | HDAC4 mRNA expression level (204225_at) | NIN mRNA expression level (225921_at) | NUPL2 mRNA expression level (204003_s_at) | TRIM31 mRNA expression level (210159_s_at)
0.19: C1orf63 mRNA expression level (209006_s_at) | C1orf82 mRNA expression level (222893_s_at) | C15orf40 mRNA expression level (1552310_at) | KIAA0323 mRNA expression level (212355_at) | KIN mRNA expression level (205664_at) | METTL3 mRNA expression level (209265_s_at) | mRNA expression level, probeset 235436_at (gene name not given)
0.18: FGF19 mRNA expression level (223761_at) | GRHL1 mRNA expression level (222830_at) | METTL4 mRNA expression level (219698_s_at) | PCGF1 mRNA expression level (210023_s_at) | SLC17A5 mRNA expression level (223441_at) | mRNA expression level, probeset 228106_at (gene name not given)
0.15: ATP6V0A2 mRNA expression level (205704_s_at) | C6orf136 mRNA expression level (227455_at) | C7orf36 mRNA expression level (223433_at) | DNAJC16 mRNA expression level (212908_at) | KIAA0776 mRNA expression level (212633_at) | NOC3L mRNA expression level (218889_at) | PHACTR4 mRNA expression level (226823_at) | ZKSCAN1 mRNA expression level (214670_at)
0.17: ANGEL2 mRNA expression level (221825_at) | ATP2A2 mRNA expression level (212361_s_at) | C12orf32 mRNA expression level (225837_at) | CCDC14 mRNA expression level (225017_at) | CDNA FLJ34214 fis, clone FCBBF3021807 mRNA expression level (227087_at) | NCOA5 mRNA expression level (225145_at) | PMS1 mRNA expression level (213677_s_at) | Transcribed locus mRNA expression level (235609_at) | WBP4 mRNA expression level (203598_s_at)
0.09: C20orf112 mRNA expression level (225224_at) | CLDND1 mRNA expression level (208925_at) | JAGN1 mRNA expression level (223104_at) | JUB mRNA expression level (225806_at) | KIAA0859 mRNA expression level (212405_s_at) | KIF21A mRNA expression level (226003_at) | POLD3 mRNA expression level (212836_at) | TAF4 mRNA expression level (213090_s_at) | TTC4 mRNA expression level (46167_at)
0.03: IREB2 mRNA expression level (225892_at)
0.08: CDC6 mRNA expression level (203967_at) | PAXIP1 mRNA expression level (212825_at) | SHPRH mRNA expression level (226366_at) | WDR67 mRNA expression level (214061_at)
0.05: BPTF mRNA expression level (232909_s_at) | C5orf28 mRNA expression level (219029_at) | CCNE2 mRNA expression level (205034_at) | EHBP1 mRNA expression level (212653_s_at) | FBXL5 mRNA expression level (209004_s_at) | ZMIZ1 mRNA expression level (212124_at)
0.23: C7orf49 mRNA expression level (220949_s_at) | TRIP4 mRNA expression level (203732_at)
0.16: KCNE3 mRNA expression level (227647_at) | LOC124512 mRNA expression level (225808_at) | WDR26 mRNA expression level (218107_at)
0.25: FLJ20628 mRNA expression level (221229_s_at) | SLC37A1 mRNA expression level (218928_s_at) | ZCCHC6 mRNA expression level (220933_s_at)
0.22: ERCC3 mRNA expression level (202176_at) | FAM86C mRNA expression level (65585_at) | MKRN1 mRNA expression level (201285_at) | PIK3C3 mRNA expression level (204297_at) | RPS6KC1 mRNA expression level (218909_at) | SLC25A19 mRNA expression level (223222_at) | TMEM177 mRNA expression level (218897_at) | Transcribed locus mRNA expression level (230177_at)
0.06: E2F7 mRNA expression level (228033_at) | FKSG44 mRNA expression level (227964_at) | MCM10 mRNA expression level (220651_s_at) | PLEKHA5 mRNA expression level (220952_s_at) | SFXN1 mRNA expression level (230069_at) | UNC50 mRNA expression level (203583_at)
0.20: ADPRHL2 mRNA expression level (223097_at) | ELL3 mRNA expression level (219518_s_at) | INTS7 mRNA expression level (222250_s_at) | NPC1 mRNA expression level (202679_at)
